Assays:
[1] = system: neonatal mouse cardiomyocytes
Description: Isolated primary neonatal cardiomyocytes were mixed with 8.5% wt/vol GelMa solution containing 0.01% wt/vol of ascorbic acid and 2 mM lithium phenyl-2,4,6-trimethylbenoylphosphinate (LAP). This solution was injected into the fluidics chamber (see FIG. 3D) and a dark transparency mask containing the clear ellipse patterns was placed under the circular chamber of the device. The GelMa solution was photo-polymerized using a UV light source with an excitation wavelength of 365±40 nm (see FIG. 3E). The regions of the hydrogel precursor solution exposed to UV light polymerized rapidly, thereby forming the microtissues with cells encapsulated within (see FIG. 3E). The unreacted hydrogel precursor solution was removed from the fluidics chamber by injecting PBS in excess (see FIG. 3F). Thus, the 3D device with patterned cardiac-microtissues between hydrogels was created (see FIG. 3G). The device was then perfused with cardiomyocyte growth media and incubated at 37° C. and 10% CO2 culture conditions. […]
To quantify the forces generated by the cardiomyocytes, the propagation of forces originating from the GelMA structures were exploited to PAm hydrogels. […] In addition, a measured value of 8.5 kPa was used for the elastic modulus of the PAm hydrogel and 0.45 for Poisson's ratio.
By treating the PAm hydrogel as a 3 dimensional block tethered at the bottom in mechanical equilibrium, a finite element (FE) approach was used to solve a series of electrostatics equations. […] To obtain the input for the boundary condition at the top surface of the gel, the displacement of the hydrogel was quantified by tracking the fluorescent particles embedded within the network using particle image velocimetry (PIV). […]
Using this approach, fluorescent images were obtained of the green beads embedded within PAm at a frequency of 9 frames per second in order to capture the contraction profile of the cardiomyocytes at 20× magnification. […] Using the FE approach, the traction stress field caused by the cellular forces was calculated.

[2] = system: MCF7 spheroids; assay: Change in MCF7 spheroid size after Doxorubicin treatment in tumor-on-a-chip device; type: cell-based; conditions: for decrease in spheroid area: 3 days (D8 area normalized to D5)
Description: HUVECs and MCF7 spheroids were encapsulated within GelMA hydrogels. The MCF spheroids were passed through a cell strainer having 100 μm pore size (Corning) to eliminate single cells and small spheroids. Around 50 spheroids with a diameter of ˜200 μm were dispersed in 5 mL of PBS containing 2 million HUVEC cells. The mixture was centrifuged for 3 minutes at 800 rpm. The supernatant was aspirated and 100 μL of 10% GelMA solution was added to the cell pellet. The cells were re-suspended gently using a pipette before the addition of 0.01% ascorbic acid (antioxidant) and 2 μM LAP (photoinitiator) to the solution. This solution was again mixed gently, drawn into a syringe, and injected into the microfluidic device (FIG. 8, step G).
This device was placed onto a transparency film photomask containing an ellipse pattern and mounted onto a microscope stage (FIG. 8, steps H-I). Using the stage controller of the microscope, the position of the fluidic device was moved to locate individual MCF7 spheroids surrounded by HUVECs under bright field illumination. Each location was exposed to UV light with an excitation and emission wavelengths of approximately 358 and 463 nm, respectively, for 18 seconds. Several locations were photopolymerized before flushing the device with PBS containing 4% Penicillin/Streptomycin. Mixed Media (MM) containing 50% GM and 50% HM was subsequently injected into the device and the GelMA structures containing MCF7 spheroids and HUVECs were cultured at 37° C. and 10% CO2.
Brightfield images of the GelMA hydrogels containing the spheroids and HUVECs were recorded as a function of culture time (1-5 days) to examine their growth post-encapsulation. The area of the spheroid was quantified by tracing the boundary of the spheroid using the free-hand selection tool on ImageJ. […]
The potential of the device as a drug screening platform was assessed by analyzing the effects of Doxorubicin on HUVEC barrier and the tumor spheroids. […] To quantify the effects of Doxorubicin, the changes in spheroid size was analyzed before and after treatment with varying concentrations of the drug.

[3] = system: HUVECs; assay: Effect of Doxorubicin on HUVEC endothelial barrier around GelMA structures
Description: HUVECs and MCF7 spheroids were encapsulated within GelMA hydrogels.
Doxorubicin (Cat. No. D1515, Sigma-Aldrich) was weighed and dissolved in DMSO to achieve a concentration of 100 mg/mL. This solution was distributed into small aliquots and stored in −20° C. The stock solution was thawed and diluted to 100 μg/mL in pre-warmed MM (˜37° C.) and sterilized using a DMSO-resistant syringe filter (Pall Corporations). This 100 μg/mL solution was further diluted in MM to acquire doxorubicin concentrations of 1 and 10 μg/mL used herein.
The potential of the device as a drug screening platform was assessed by analyzing the effects of Doxorubicin on HUVEC barrier and the tumor spheroids. Cell laden GelMA structures, cultured for 5 days, were exposed to different concentrations of Doxorubicin (1, 10, and 100 μg/mL) for 3 days.

| presence of endothelial barrier ([3]; at and above 10 μg/mL of Doxorubicin, D8) | endothelial barrier ([3]; high doses of Doxorubicin (>10 μg/mL)) | SMILES | magnitude of contraction ([1]; addition of epinephrine (0.1 μg/mL)) | ratio of residual stress in the presence of epinephrine to absence of epinephrine ([1]; multiple microtissues, cultured 7 days, value <1 = decrease, epinephrine 0.1 μg/mL) | ratio of force amplitude in the presence of epinephrine to absence of epinephrine ([1]; multiple microtissues, cultured 7 days, value >1 = increase, epinephrine 0.1 μg/mL) | spheroid growth less than those cultured in the absence of the drug ([2]; 1 μg/mL Doxorubicin, 3 days, growth still observed) | decrease in spheroid area ([2]; 10 μg/mL Doxorubicin) | decrease in spheroid area ([2]; 100 μg/mL Doxorubicin) | endothelial barrier (cytotoxicity to HUVECs) ([3]; upon exposure to Doxorubicin, 3 days) |
| --- | --- | --- | --- | --- | --- | --- | --- | --- | --- |
|  |  | CNC[C@H](O)c1ccc(O)c(O)c1 [epinephrine] | increased | ~0.9 | ~1.4 |  |  |  |  |
| lack thereof | loss of the endothelial barrier | COc1cccc2c1C(=O)c1c(O)c3c(c(O)c1C2=O)C[C@@](O)(C(=O)CO)C[C@@H]3O[C@H]1C[C@H](N)[C@H](O)[C@H](C)O1 [Doxorubicin] |  |  |  | ~20% | ~7% | ~15% | disappeared |
